Drawing on patent publication US9062070B2, “Inhibitors of the renal outer medullary potassium channel” (Merck Sharp & Dohme Corp., priority 2011, dated 2015), this text covers IC50 for 25 molecules.

One experiment concerns the target hROMK (hKir1.1) (Homo sapiens (Human), UniProt P48048). As to the kind of experiment: Thallium Flux Assay (ROMK channel functional thallium flux, FLIPR-Tetra). In kind it is cell-based. The settings on record: HEK293 cells stably expressing hROMK (hKir1.1). The method, then:
HEK293 cells stably expressing hROMK (hKir1.1) were grown at 37° C. in a 10% CO2 humidified incubator in complete growth media: Dulbecco's Modified Eagle Medium supplemented with non-essential amino acids, Penicillin/Streptomycin/Glutamine, G418 and FBS. At >80% confluency, aspirate the media from the flask and rinse with 10 mL Calcium/Magnesium-free PBS. Add 5 mL of 1× trypsin (prepared in Ca/Mg Free PBS) to T-225 flask and return flask to 37° C./CO2 incubator for 2-3 minutes. To dislodge the cell, gently bang the side of the flask with your hand. Triturate the cells completely and then transfer the cells to 25 mL complete media. Centrifuge at 1,500 rpm for 6 min followed by resuspension in complete growth media and determine cell concentration. For typical re-seeding, 4E6 cells/T-225 flask will attain>80% confluency in 4 days. Under ideal growth conditions and appropriate tissue culture practices, this cell line is stable for 40-45 passages.
• FluxOR™ Reagent (Component A) • FluxOR™ Assay Buffer (Component B)—10× Concentrate • PowerLoad™ Concentrate (Component C)—100× Concentrate • Probenecid (Component D)—Lyophilized sample is kept at −20° C. Water soluble, 100× after solubilization in 1 mL water. Store at 4° C. • FluxOR™ Chloride-free Buffer (Component E)—5× Concentrate • Potassium sulfate (K2SO4) Concentrate (Component F)—125 mM in water. Store at 4° C. • Thallium sulfate (Tl2SO4) Concentrate (Component G)—50 mM in water. Store at 4° C. • DMSO (dimethyl sulfoxide, Component H)—1 mL (100%) Reagent Preparation: FluxOR Working Solutions • 1000× FluxOR™ Reagent: Reconstitute a vial of component A in 100 μl DMSO; Mix well; Store 10 μl aliquots at −20° C. • 1× FluxOR™ Assay Buffer: Dilute Component B 10-fold with water; Adjust pH to 7.4 with Hepes/NaOH; Filter and store at 4° C. • Probenecid/Assay Buffer: 100 mL of 1× FluxOR™ Assay Buffer; 1 mL of reconstituted component D; Store at 4° C. • Loading Buffer (per microplate): 10 μl 1000× FluxOR™ Reagent; 100 μl component C; 10 mL Probenecid/Assay Buffer • Compound Buffer (per microplate): 20 mL Probenecid/Assay Buffer; 0.3 mM ouabain (10 mM ouabain in water can be stored in amber bottle/aluminum foil at room temperature); Test compound • 1× FluxOR™ Chloride-Free Buffer: Prepare 1× working solution in water. Can be stored at room temperature • Stimulant Buffer (prepared at 5× final concentration in 1× FluxOR™ Chloride-Free Buffer): 7.5 mM Thallium sulfate and 0.75 mM Potassium sulfate (to give a final assay concentration of 3 mM Thallium/0.3 mM Potassium). Store at 4° C. when not in use. If kept sterile, this solution is good for months. Assay Protocol—
The ROMK channel functional thallium flux assay is performed in 384 wells, using the FLIPR-Tetra instrument. HEK-hKir1.1 cells are seeded in Poly-D-Lysine microplates and kept in a 37° C.-10% CO2 incubator overnight. On the day of the experiment, the growth media is replaced with the FluxOR™ reagent loading buffer and incubated, protected from light, at ambient temperature (23-25° C.) for 90 min. The loading buffer is replaced with assay buffer±test compound followed by 30 min incubation at ambient temperature, where the Thallium/Potassium stimulant is added to the microplate.
• 1. Seed HEK-hKir1.1 cells (50 μl at 20,000 cells/well) in 384-well PDL coated Microplates • 2. Allow cells to adhere overnight in humidified 37° C./10% CO2 incubator • 3. Completely remove cell growth media from microplate and replace with 25 μl loading buffer • 4. Incubate Microplate at room temperature, protected form light, for 90 min • 5. Remove loading buffer and replace with 25 μl 1× Assay Buffer±test compound. • 6. Incubate microplate at room temperature, protected form light, for 30 min • 7. At FLIPR-Tetra 384: Add stimulant (Thallium/Potassium) solution to microplate and monitor fluorescence. Excitation=400 nm, Emission=460 & 580 nm. Collect data for ˜10 min. Data Calculation—

A further experiment deals with Kir1.1 (ROMK1) (Homo sapiens (Human), UniProt P48048). As to the kind of experiment: Electrophysiology Assay (whole cell voltage clamp, IonWorks Quattro). In kind it is cell-based. The settings on record: Chinese hamster ovary cells stably expressing Kir1.1; block during voltage step to 0 mV. The method, then:
Block of Kir1.1 (ROMK1) currents was examined by whole cell voltage clamp (Hamill et. al. […] Prior to an experiment, Kir1.1 expression was induced by overnight incubation with 1 mM sodium butyrate. […] After centrifugation, the cell pellet was resuspended in approximately 4.0 mL of bath solution and placed in the IonWorks instrument. The intracellular solution consisted of (in mM): 80 K gluconate, 40 KCl, 20 KF, 3.2 MgCl2, 3 EGTA, 5 Hepes, pH 7.4. […] Amphotericin B (Sigma A-4888) was prepared as a 40 mg/mL solution in DMSO. Voltage protocols and current recordings were performed using the IonWorks HT software/hardware system. […] No correction for liquid junction potentials was used. The test pulse, consisting of a 100 ms step to 0 mV from a holding potential of −70 mV, followed by a 100 ms voltage ramp from −70 mV to +70 mV, was applied before and after a 6 min compound incubation period. Test compounds were prepared by diluting DMSO stock solutions into the bath solution at 3× the final concentration and placed in the instrument in 96-well polypropylene plates. Current amplitudes were measured using the IonWorks software. To assess compound potency, the fractional block during the voltage step to 0 mV was calculated in Microsoft Excel (Microsoft, Redmond, Calif.), and dose-response curves were fitted with Igor Pro 4.0 (WaveMetrics, Lake Oswego, Oreg.).

Kir1.1 (ROMK1), sequence (P48048 whole entry): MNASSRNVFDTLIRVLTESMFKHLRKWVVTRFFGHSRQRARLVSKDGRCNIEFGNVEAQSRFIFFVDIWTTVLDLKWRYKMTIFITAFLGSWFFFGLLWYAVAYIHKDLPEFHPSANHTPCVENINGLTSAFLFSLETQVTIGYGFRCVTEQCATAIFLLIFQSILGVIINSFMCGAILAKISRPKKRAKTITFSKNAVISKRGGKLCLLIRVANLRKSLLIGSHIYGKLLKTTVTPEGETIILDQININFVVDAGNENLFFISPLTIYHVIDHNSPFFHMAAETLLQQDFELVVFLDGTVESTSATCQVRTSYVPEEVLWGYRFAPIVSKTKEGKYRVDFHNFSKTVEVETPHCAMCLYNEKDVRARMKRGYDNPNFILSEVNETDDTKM
hROMK (hKir1.1), sequence (P48048 whole entry): as above

For `COc1cc([C@@H]2CN3CCN(C(=O)C4CCc5nc(-n6cnnn6)ccc54)C[C@@H]3CO2)ccc1C#N` (some centres unmarked) [Example 63], the IC50 was found to be 740 nM against hROMK (hKir1.1) and 270 nM on Kir1.1 (ROMK1).
`N#Cc1c(F)ccc([C@@H]2CN3CCN(C(=O)C4CCc5nc(-n6cnnn6)ccc54)C[C@@H]3CO2)c1Cl` (some centres unmarked) [Example 64]: the IC50 is 120 nM at hROMK (hKir1.1) and 100 nM at Kir1.1 (ROMK1).
With `N#Cc1c(F)ccc([C@@H]2CN3CCN(C(=O)C4CCc5nc(-n6cnnn6)ccc54)C[C@@H]3CO2)c1Cl` (some centres unmarked) [Example 65], the IC50 against hROMK (hKir1.1) stood at 340 nM; against Kir1.1 (ROMK1), 140 nM.
In the same order, the values of `N#Cc1cc([C@@H]2CN3CCN(C(=O)C4CCc5cc(-n6cnnn6)ncc54)C[C@H]3CO2)c(F)cc1F` (some centres unmarked) [Example 68] are 200 nM and 200 nM.
In the same order, the values of `COc1c([C@@H]2CN3CCN(C(=O)C4CCc5cc(-n6cnnn6)ncc54)C[C@H]3CO2)ccc(C#N)c1F` (some centres unmarked) [Example 70] are 500 nM and 100 nM.
Take `COc1ccc([C@H]2CN3CCN(C(=O)C4CCc5cc(-n6cnnn6)ncc54)C[C@@H]3CO2)c(C)c1C#N` (some centres unmarked) [Example 74]: the IC50 against hROMK (hKir1.1) is 500 nM; against Kir1.1 (ROMK1), 280 nM.
The matching figures for `Cc1c([C@@H]2CN3CCN(C(=O)C4Cc5cnc(-n6cnnn6)nc5C4)C[C@@H]3CO2)ccc(F)c1C#N` (some centres unmarked) [Example 75]: 250 nM and 150 nM.
With `Cc1c([C@H]2CN3CCN(C(=O)C4Cc5cnc(-n6cnnn6)nc5C4)C[C@H]3CO2)ccc(F)c1C#N` (some centres unmarked) [Example 76], the IC50 was 460 nM on hROMK (hKir1.1) and 130 nM at Kir1.1 (ROMK1).
In the case of `COc1cc(F)c([C@H]2CN3CCN(C(=O)C4CCc5nc(-n6cnnn6)ccc54)C[C@@H]3CO2)cc1C#N` (some centres unmarked) [Example 77], the IC50 against hROMK (hKir1.1) is 400 nM; against Kir1.1 (ROMK1) it was 290 nM.
With `N#Cc1cc([C@@H]2CN3CCN(C(=O)C4CCc5nc(-n6cnnn6)ncc54)C[C@H]3CO2)ccc1F` (some centres unmarked) [Example 79], the IC50 against hROMK (hKir1.1) stood at 210 nM; against Kir1.1 (ROMK1), 190 nM.
As to `N#Cc1cc([C@@H]2CN3CCN(C(=O)C4CCc5nc(-n6cnnn6)ncc54)C[C@@H]3CO2)ccc1F` (some centres unmarked) [Example 80], the IC50 against hROMK (hKir1.1) turned out to be 260 nM; on Kir1.1 (ROMK1) it was 120 nM.
As for `N#Cc1c(F)ccc([C@@H]2CN3CCN(C(=O)C4CCc5nc(-n6cnnn6)ncc54)C[C@@H]3CO2)c1Cl` (some centres unmarked) [Example 81], the IC50 on hROMK (hKir1.1) turned out to be 170 nM; against Kir1.1 (ROMK1) it was 60 nM.
For `N#Cc1c(F)ccc([C@@H]2CN3CCN(C(=O)C4CCc5nc(-n6cnnn6)ncc54)C[C@@H]3CO2)c1Cl` (some centres unmarked) [Example 82], the IC50 against hROMK (hKir1.1) amounted to 140 nM; against Kir1.1 (ROMK1), 50 nM.
For the molecule `N#Cc1c(F)ccc([C@H]2CN3CCN(C(=O)C4CCc5nc(-n6cnnn6)ncc54)C[C@@H]3CO2)c1Cl` (some centres unmarked) [Example 83], the values for the IC50 at hROMK (hKir1.1) and against Kir1.1 (ROMK1) were 360 nM and 80 nM, respectively.
The matching figures for `Cc1c([C@@H]2CN3CCN(C(=O)C4CCc5cc(-n6cnnn6)cnc54)C[C@@H]3CO2)ccc(F)c1C#N` (some centres unmarked) [Example 91]: 550 nM and 140 nM.
With `Cc1c([C@H]2CN3CCN(C(=O)C4CCc5cc(-n6cnnn6)ncc54)C[C@H]3CO2)ccc(C#N)c1F` (some centres unmarked) [Example 93], the IC50 on hROMK (hKir1.1) was 430 nM; at Kir1.1 (ROMK1), 180 nM.
With `Cc1c([C@H]2CN3CCN(C(=O)C4CCc5cc(-n6cnnn6)ncc54)C[C@H]3CN2)ccc(F)c1C#N` (some centres unmarked) [Example 97], the IC50 against hROMK (hKir1.1) was 160 nM; on Kir1.1 (ROMK1), 90 nM.
For the molecule `Cc1c([C@@H]2CN3CCN(C(=O)C4CCc5nc(-n6cnnn6)ccc54)C[C@H]3CN2)ccc(F)c1C#N` (some centres unmarked) [Example 98], the IC50 amounted to 390 nM on hROMK (hKir1.1) and 170 nM at Kir1.1 (ROMK1).
In the same order, the values of `Cc1c([C@@H]2CN3CCN(C(=O)C4CCc5cc(-n6cnnn6)cnc54)C[C@H]3CN2)ccc(F)c1C#N` (some centres unmarked) [Example 99] are 430 nM and 350 nM.
The matching figures for `Cc1c([C@@H]2CN3CCN(C(=O)C4CCc5cc(-n6cnnn6)cnc54)C[C@H]3CN2)ccc(F)c1C#N` (some centres unmarked) [Example 100]: 750 nM and 280 nM.
For `Cc1c([C@H]2CN3CCN(C(=O)C4CCc5nc(-n6cnnn6)ncc54)C[C@H]3CN2)ccc(F)c1C#N` (some centres unmarked) [Example 102], the IC50 on hROMK (hKir1.1) is 450 nM; at Kir1.1 (ROMK1) it was 100 nM.
The matching figures for `Cc1c([C@H]2CN3CCN(C(=O)C4CCc5cc(-n6cnnn6)ncc54)C[C@@H]3CN2)ccc(F)c1C#N` (some centres unmarked) [Example 103]: 180 nM and 110 nM.
In the same order, the values of `Cc1c([C@H]2CN3CCN(C(=O)C4CCc5cc(-n6cnnn6)ncc54)C[C@@H]3CN2)ccc(F)c1C#N` (some centres unmarked) [Example 104] are 360 nM and 120 nM.
`Cc1c([C@@H]2CN3CCN(C(=O)C4CCc5cc(-n6cnnn6)ncc54)C[C@@H]3CN2)ccc(F)c1C#N` (some centres unmarked) [Example 105]: the IC50 amounted to 140 nM against hROMK (hKir1.1) and 80 nM against Kir1.1 (ROMK1).
For `Cc1c([C@@H]2CN3CCN(C(=O)C4CCc5cc(-n6cnnn6)ncc54)C[C@@H]3CN2)ccc(F)c1C#N` (some centres unmarked) [Example 106], the IC50 was found to be 400 nM on hROMK (hKir1.1) and 120 nM against Kir1.1 (ROMK1).
